Source: paper PMC11939470, “The Cyclic Antimicrobial Peptide C-LR18 Has Enhanced Antibacterial Activity, Improved Stability, and a Longer Half-Life Compared to the Original Peptide” (Antibiotics, 2025)

Key:
[1] = cited from earlier work
Text: An in vivo toxicity test is an essential step in the safety evaluation of exogenous drugs. The purpose is to observe the systemic toxicity of drugs on animals, including whether there are adverse physiological reactions, pathological changes in organs and tissues of the whole body, and the mortality of animals. Therefore, before the treatment of C-LR18 on E. coli-infected mice, we tested the acute toxicity of C-LR18 in mice.

E. coli ATCC25922 = assay: Membrane permeability assay (propidium iodide uptake, flow cytometry); format: cell-based; conditions: melittin 4 μM, positive control, 30 min 37 °C
Procedure: The effect of C-LR18 on bacterial membrane permeability was measured using the propidium iodide (PI) uptake assay described in [22]. E. coli ATCC25922 in logarithmic growth phase were adjusted to 1 × 10^6 CFU/mL. C-LR18 was added with the final concentration of 4 μM. The mixtures were incubated for 30 min at 37 °C. […] After eliminating unbound dye by washing twice with PBS, the bacterial cells were detected using a flow cytometer (Ex = 535 nm/Em = 615 nm). The results were analyzed using FlowJo 6.2.1 and GraphPad Prism 5 software.

E. coli Y1 [2] = assay: Therapeutic experiment, survival of E. coli-infected mice; format: in vivo, KM mice; conditions: polymyxin B 5.0 mg/kg ip 1 h after ip E. coli Y1 challenge, 10 mice per group
Procedure: The mice (female, 18–21 g) were randomly divided into 6 groups, with PBS dilution as the control group. A total of 1–5 groups were injected intraperitoneally with 0.5 mL of E. coli solution containing […] CFU/mL, respectively. After inoculation, the mice were observed continuously for 5 days, and the mortality rate was recorded. The minimum dose (LD 100) at which all mice die within 5 days was used as the optimal dose for the bacterial attack in this experiment.
In order to further evaluate the therapeutic potential of antimicrobial peptide C-LR18, a mouse model infected with E. coli was constructed in this study. The Km mice (female, 18–21 g) were maintained at constant room temperature [(25 ± 2) °C] with free access to food and water for 48 h. […] A total of 0.5 mL of E. coli Y1 suspension (10^9 CFU/m L) was intraperitoneally injected into each group of mice. One hour after challenge, different doses of C-LR18 (2.5 mg/kg, 5 mg/kg, and 7.5 mg/kg) and polymyxin B (5 mg/kg) were intraperitoneally injected into mice. The group injected with the same dose of physiological water was the control group.

E. coli Y1 [3] = assay: Bacterial load in liver and spleen of mice; format: in vivo; conditions: polymyxin B 1 mg/kg, positive control, one mouse every 24 h
Procedure: One hour after the mice were intraperitoneally injected with 0.5 mL of E. coli Y1 suspension (10^9 CFU/mL), C-LR18 was injected into the mice at a dose of 7.5 mg/kg through the tail vein. The normal saline group was used as negative control, and the polymyxin B group (1 mg/kg) was used as positive control. After that, one mouse was taken every 24 h, sacrificed via cervical dislocation, and the liver and spleen were removed, weighed, and added to PBS buffer for grinding at 3000 r/min for 2 min. The abrasive solution was diluted with sterile PBS (1:10,000), and 0.1 mL diluent was evenly coated in solid MH medium and cultured at 37 °C overnight. Colony counting was performed on the samples, and the bacterial colonization amount in liver and spleen was calculated.

Row | Compound | LD50 [1] | PI fluorescence of treated cells (PI-A+) (E. coli ATCC25922) | survival rate of mice (E. coli Y1 [2]) | bacterial colonization in liver and spleen (E. coli Y1 [3])
1 | CC[C@H](C)[C@H](NC(=O)CN)C(=O)NCC(=O)N[C@@H](C)C(=O)N[C@H](C(=O)N[C@@H](CC(C)C)C(=O)N[C@@H](CCCCN)C(=O)N[C@H](C(=O)N[C@@H](CC(C)C)C(=O)N[C@H](C(=O)N[C@H](C(=O)NCC(=O)N[C@@H](CC(C)C)C(=O)N1CCC[C@H]1C(=O)N[C@@H](C)C(=O)N[C@@H](CC(C)C)C(=O)N[C@H](C(=O)N[C@@H](CO)C(=O)N[C@@H](Cc1c[nH]c2ccccc12)C(=O)N[C@H](C(=O)N[C@@H](CCCCN)C(=O)N[C@@H](CCCNC(=N)N)C(=O)N[C@@H](CCCCN)C(=O)N[C@@H](CCCNC(=N)N)C(=O)N[C@@H](CCC(N)=O)C(=O)N[C@@H](CCC(N)=O)C(N)=O)[C@@H](C)CC)[C@@H](C)CC)[C@@H](C)O)[C@@H](C)O)C(C)C)C(C)C [Melittin, reference compound] | 4.98 mg/kg | 83.6% |  | 
2 | polymyxin B [reference compound] | 6.52 mg/kg |  | 50% | significantly less than that in the negative control group
